Reference: patent US10100077B2, “6-aryl-9-glycosylpurines and use thereof” (UNIVERZITA PALACKEHO V OLOMOUCI, priority 2014, dated 2018)

How the values were obtained:
[1] = test system: Vaccinia virus, strain IHD; conditions: cited from earlier work
[2] = test system: Vaccinia virus and Herpes simplex virus; conditions: cited from earlier work
[3] = test system: mousse fibroblasts (NIH3T3); test: Calcein AM cytotoxicity assay, NIH3T3; format: cell-based, mouse; conditions: 72 hrs
Description: (§1) One of the parameters used as the base for cytotoxic analysis is metabolic activity of viable cells, such as microtiter assay, which uses the Calcein AM, is now widely used to quantitate cell proliferation and cytotoxicity. The quantity of reduced Calcein AM corresponds to the number of viable cells in culture. The cell lines of breast cancer (MCF-7), mousse fibroblasts (NIH3T3), human erythromleukemia (K562) were used for routine screening of cytotoxicity of the compounds. The cells were maintened in Nunc/Corning 80 cm^2 plastic bottles and grown in media for cell culture (DMEM containing 5 g/l of glucose, 2 mM of glutamin, 100 U/ml of penicilin, […] of streptomycin, 10% of fetal bovine serum and sodium hydrogencarbonate). Cell suspensions were diluted according to cell types and according to expected final cell density (10^4 of cells per well according to characteristics of cell growth), pipetted 80 μl of cell suspension on 96-well microtiter plates. Innoculates were stabilized by 24 hrs preincubation at 37° C. in CO2. Particular concentrations of tested compounds were added in time zero as 20 μl aliquotto wells of microtiter plates. Usually, the compounds were diluted into six concentrations in four-fold dilution series. In routine testing, the highest well concentration was 166.7 μM, of change dependent on the substance. All drug concentrations were examined in duplicates. The incubation of cells with tested derivatives lasted 72 hrs at 37° C., 100% humidity and in the atmosphere of CO2. At the end of the incubation period, the cells were tested and analysed according to the addition of Calcein AM (Molecular probes) solution and the incubation lasted for next 1 hour. Fluorescence (FD) was measured using Labsystem FIA reader Fluorskan Ascent (Microsystems). The survival of tumor cells (The tumor cell survival-TCS) was counted according to equation: […]=(FDwell with derivative/FDcontrol well)×100%. The value of GI50, that is equal to the concentration of compound at which 50% of tumour cells are terminated. To evaluate the antitumor activity was tested toxicity of new derivatives on panel of cell lines of different histogenetic and species origin (Tab. 7, G150 concentration given in μM). […] Effective derivatives killed tumor cells in concentrations close to 0.1 to 50. None of the newly prepared compounds only reached the value.

[4] = test system: human erythromleukemia (K562); test: Calcein AM cytotoxicity assay, K562; format: cell-based; conditions: 72 hrs
Description: as §1

breast cancer (MCF-7) = test: Calcein AM cytotoxicity assay, MCF-7; format: cell-based; conditions: 72 hrs
Description: as §1

[5] = Calcein AM cytotoxicity assay, NIH3T3; format: cell-based, mouse; conditions: mouse, NIH3T3 fibroblasts
Description: as §1

[6] = Calcein AM cytotoxicity assay, K562; format: cell-based, human; conditions: human, K562 erythroleukemia cells
Description: as §1

[7] = test system: skin fibroblasts BJ and keratinocytes HaCaT; test: MTT in vitro cytotoxicity test for skin cells; format: cell-based; conditions: for IC50: Homo sapiens, MTT, 72 hour treatment, BJ and HaCaT, maximal concentration 50 microM
Protocol: MTT assay is a standard test of toxicity based on photometric measurement of the ability of metabolically active cells to reduce MTT (3-(4,5-dimethylthiazol-2-yl)-2,5-diphenyltetrazolium bromide). Using the assay, the effects of 72 hour treatments with several concentrations of the compounds (sixfold dilution, maximal concentration=50 microM) on viability of skin fibroblasts BJ and keratinocytes HaCaT were evaluated. About 5,000 cells were seeded per well of a 96-well plate 24 hours before the treatment. DMSO vehiculum was used as a negative control. After 72 hour treatment, new medium with MTT (Sigma, M2128) was added to a final concentration of 0.5 mg/ml. After 3 hours, medium was removed and resulting formazan in the cells was dissolved in DMSO. The absorbance was measured at 570 nm (640 nm reference wavelength). The IC50 values were calculated from the dose-response curves. 6-Benzylaminopurine riboside and 6-furfurylaminopurine riboside were used as positive controls they were toxic in the MTT test.

[8] = Calcein AM cytotoxicity assay, MCF-7; format: cell-based; conditions: human, MCF-7 breast cancer cells
Description: as §1

[9] = test system: detached leaf segments of Triticum aestivum cv. Hereward; test: Senescence bioassay on wheat leaf segments (chlorophyll retention); conditions: for activity (%) [10^−4 mol · l^−1 BAP = 100%]: chlorophyll retention at maximum effective concentration, 96 h dark
Protocol: Seeds of winter wheat, Triticum aestivum cv. Hereward, were washed under running water for 24 hours and then sown on vermiculite soaked with Knop's solution. They were placed in the growth chamber at 25° C. with a 16/8 h light period at 50 μmol·m^−2·s^−1. After 7 days, the first leaf was fully developed and the second leaf had started to grow. A tip section of the first leaf, approximately 35 mm long, was removed from 5 seedlings and trimmed slightly to a combined weight of 100 mg. The basal ends of the five leaf tips were placed in the wells of a microtiter polystyrene plate containing 150 μL, of the tested derivative solution each. The entire plate was inserted into a plastic box lined with paper tissues soaked in distilled water to prevent leaf sections from drying out. After 96 h incubation in the dark at 25° C., the leaves were removed and chlorophyll extracted by heating at 80° C. for 10 min in 5 mL of 80% ethanol (v/v). The sample volume was then restored to 5 mL by the addition of 80% ethanol (v/v). The absorbance of the extract was recorded at 665 nm. In addition, chlorophyll extracts from fresh leaves and leaf tips incubated in deionised water were measured. The results are means of five replicates and the entire test was repeated twice. […] The compounds to be tested were dissolved in dimethylsulfoxide (DMSO) and the solution brought up to 10^−3M with distilled water. This stock solution was further diluted with the respective media used for the biotest to a concentration ranging from 10^−8M to 10^−4M. […] The activity obtained for 10^−4 M of BAP was postulated as 100%.

[10] = test system: EpiDERM 3D model of epidermis; test: In vitro test of skin irritation in EpiDERM; format: cell-based
Protocol: EpiDERM™ is a 3D model of epidermis manufactured by Mattek company. The effects of tested substances are evaluated by MTT. 2 solutions (2 application forms) of the compounds 6-furfurylamino-9-β-D-arabinofuranosylpurine and 6-(3-methoxybenzylamino)-9-β-D-arabinofuranosylpurine in concentrations 1 mM a 200 microM in 0.5% DMSO/99.5% PBS were evaluated according to a standard protocol “INVITRO EpiDerm™ SKIN IRRITATION TEST”. After a preincubation of the tissues, 30 microliters of the application form solution were applied on the individual tissues. The exposition time was 60 minutes. Three tissues were used for each tested concentration as well as for controls. Following washing out of the applied solution, the tissues were incubated for 42 hour in order to allow a reparation of possible damage. In the next step, the tissue was incubated with MTT for 3 hours. The resulting formazan was extracted to isopropanol. Relative viability of the individual tissues was calculated as a percentage of viability of the average of the negative controls. Average viability of the tissues treated with 1 mM solution of the test substance was 99.3% for the compound 6-(3-methoxybenzylamino)-9-β-D-arabinofuranosylpurine and 98.0% for the compound 6-(furfurylamino)-9-β-D-arabinofuranosylpurine where 100% is an average viability of the tissues treated with the solvent only. None of the tested compounds in any of the concentrations caused any tissue damage or irritation. The compounds were evaluated as non-irritant in the tested concentrations.

[11] = test system: skin fibroblasts BJ and keratinocytes HaCaT; test: SRB in vitro toxicity test; format: cell-based; conditions: Homo sapiens, 72 hour treatment, maximal concentration 50 microM
Protocol: SRB (sulforhodamine B) assay is a standard toxicity test based on a photometric measurement of the cellular protein content after the staining with sulphorhodamine B. Using the assay, the effects of 72 hour treatments with several concentrations of the compounds (sixfold dilution, maximal concentration=50 microM) on viability of skin fibroblasts BJ and keratinocytes HaCaT were evaluated. About 5,000 cells were seeded per well of a 96-well plate 24 hours before the treatment. DMSO vehiculum was used as a negative non-toxic control. 6-benzylaminopurine riboside a 6-furfurylaminopurin riboside were used as positive toxic controls. After three days the medium was removed and the cells fixed with 10% (wt/vol) trichloroacetic acid. After the extensive washing in distilled water, 0.4% (wt/vol) solution of SRB in acetic acid was added and the fixed cells were stained for 30 minutes. The unbound stain was washed away by distilled water and the bound SRB was solubilized in unbuffered 10 mM Tris base. Absorbance was measured at 564 nm. IC50 values were calculated from dose-response curves.

## Cc1ccc(CNc2ncnc3c2ncn3C2OC(CO)C(O)C2O)c(C)c1 (centres unmarked) [2,4-dimethylbenzyl]
[1]
  activity against Vaccinia virus, strain IHD: low activity

## Cc1cccc(C)c1CNc1ncnc2c1ncn2[C@@H]1O[C@H](CO)[C@@H](O)[C@@H]1O [2,6-dimethylbenzyl]
[2]
  activity in killing Vaccinia virus and Herpes simplex virus: No effect

## Cc1ccccc1CNc1ncnc2c1ncn2[C@@H]1O[C@H](CO)[C@@H](O)[C@@H]1O [2-methylbenzylamino-9-β-D-arabinofuranosylpurine]
[3]
  GI50: > 100 µM
[4]
  GI50: > 100 µM
[2]
  activity in killing Vaccinia virus and Herpes simplex virus: No effect
Breast cancer (MCF-7)
  GI50: > 100 µM

## OC[C@H]1OC(n2cnc3c(NCc4ccccc4)ncnc32)[C@H](O)[C@@H]1O (some centres unmarked) [6-benzylaminopurin9-ribosylpurine, 6-benzylamino-9-ribosylpurine, reference compound]
[5]
  GI50 at 72 h: 39 µM
[6]
  GI50 at 72 h: 5.5 µM
[7]
  IC50: ≤ 3 µM
[7]; positive controls
  toxicity in the MTT test: toxic
[8]
  GI50 at 72 h: 5.4 µM

## 3-chloro-4-fluorobenzylamino-9-β-D-arabinofuranosylpurine
[3]
  GI50: > 100 µM
[4]
  GI50: > 100 µM
Breast cancer (MCF-7)
  GI50: > 100 µM

## 2-chloro-4-fluorobenzylamino-9-β-D-arabinofuranosylpurine
[3]
  GI50: > 100 µM
[4]
  GI50: > 100 µM
Breast cancer (MCF-7)
  GI50: > 100 µM

## OC[C@H]1O[C@@H](n2cnc3c(NCc4cccc(O)c4)ncnc32)C[C@@H]1O [3-hydroxybenzylamino-9-β-D-2′-deoxyribosylpurine]
[3]
  GI50: > 100 µM
[4]
  GI50: > 100 µM
Breast cancer (MCF-7)
  GI50: > 100 µM

## OC[C@H]1O[C@@H](n2cnc3c(NCc4ccccc4)ncnc32)C[C@@H]1O [6-benzylamino-9-β-D-deoxyribosylpurine]
[3]
  GI50: > 100 µM
[4]
  GI50: > 100 µM
[9]; 96 h in the dark at 25° C.
  maximum effective concentration: 10^−4 mol · l^−1
[9]
  activity (%) [10^−4 mol · l^−1 BAP = 100%]: 178 ± 9%
Breast cancer (MCF-7)
  GI50: > 100 µM

## OC[C@H]1O[C@@H](n2cnc3c(NCc4ccco4)ncnc32)[C@@H](O)[C@@H]1O [6-furfurylamino-9-β-D-arabinofuranosylpurine]
[5]
  GI50 at 72 h: > 100 µM
[6]
  GI50 at 72 h: > 100 µM
[7]
  IC50: > 50 µM
[9]
  activity (%) [10^−4 mol · l^−1 BAP = 100%]: 193 ± 1%
[10]; 1 mM and 200 microM in 0.5% DMSO/99.5% PBS
  skin irritation evaluation: non-irritant
[10]; 1 mM solution, 60 minutes exposition, 100% = solvent only
  Average viability of the tissues: 98.0%
[8]
  GI50 at 72 h: > 100 µM
[11]
  IC50: > 50 µM

## Cc1cccc(CNc2ncnc3c2ncn3C2OC(CO)C(O)C2O)c1C (centres unmarked) [2,3-dimethylbenzyl]
[2]
  activity in killing Vaccinia virus and Herpes simplex virus: No effect

## OC[C@H]1O[C@@H](n2cnc3c(NCc4cccc(F)c4)ncnc32)[C@@H](O)[C@@H]1O [6-(3-fluorobenzylamino)-9-β-D-arabinofuranosylpurine]
[5]
  GI50 at 72 h: > 100 µM
[6]
  GI50 at 72 h: > 100 µM
[9]
  activity (%) [10^−4 mol · l^−1 BAP = 100%]: 195 ± 6%
[8]
  GI50 at 72 h: > 100 µM

## OC[C@H]1O[C@@H](n2cnc3c(NCc4cccc(Cl)c4)ncnc32)[C@@H](O)[C@@H]1O [6-(3-chlorobenzylamino)-9-β-D-arabinofuranosylpurine]
[5]
  GI50 at 72 h: > 100 µM
[6]
  GI50 at 72 h: > 100 µM
[7]
  IC50: > 50 µM
[9]
  activity (%) [10^−4 mol · l^−1 BAP = 100%]: 172 ± 8%
[8]
  GI50 at 72 h: > 100 µM
[11]
  IC50: 48 µM

## Cc1ccc(C)c(CNc2ncnc3c2ncn3C2OC(CO)C(O)C2O)c1 (centres unmarked) [2,5-dimethylbenzyl]
[1]
  activity against Vaccinia virus, strain IHD: low activity

## Cc1ccc(CNc2ncnc3c2ncn3[C@@H]2O[C@H](CO)[C@@H](O)[C@@H]2O)cc1C [3,4-dimethylbenzyl]
[2]
  activity in killing Vaccinia virus and Herpes simplex virus: No effect

## Cc1cccc(CNc2ncnc3c2ncn3[C@@H]2O[C@H](CO)[C@@H](O)[C@@H]2O)c1 [3-methylbenzylamino-9-β-D-arabinofuranosylpurine]
[3]
  GI50: > 100 µM
[4]
  GI50: > 100 µM
[2]
  activity in killing Vaccinia virus and Herpes simplex virus: No effect
Breast cancer (MCF-7)
  GI50: > 100 µM
